Measurements reported in publication PMC9238327, “RG100204, A Novel Aquaporin-9 Inhibitor, Reduces Septic Cardiomyopathy and Multiple Organ Failure in Murine Sepsis” (Frontiers in Immunology, 2022).

What was measured:
[1] = molecular target: T1, Aquaporin 9 (AQP9) (Mus musculus, UniProt Q9JJJ3); assay: water and glycerol permeability in CHO cells expressing mouse AQP9 (calcein fluorescence); format: cell-based
T1 sequence (Q9JJJ3 1-295): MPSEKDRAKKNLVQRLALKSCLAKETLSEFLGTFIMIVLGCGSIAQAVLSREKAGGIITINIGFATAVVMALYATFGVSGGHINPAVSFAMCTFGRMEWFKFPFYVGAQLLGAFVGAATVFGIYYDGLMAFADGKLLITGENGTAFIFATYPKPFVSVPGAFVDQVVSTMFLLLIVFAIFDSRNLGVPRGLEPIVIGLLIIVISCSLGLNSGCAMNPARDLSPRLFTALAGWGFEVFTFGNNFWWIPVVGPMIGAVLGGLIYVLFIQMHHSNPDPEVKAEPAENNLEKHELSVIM

[2] = molecular target: T1, Aquaporin 9 (AQP9); assay: glycerol, water and H2O2 permeability in CHO cells expressing mouse AQP9 (calcein / HyPer-3 fluorescence); format: cell-based

| Compound | IC50 [1] [µM] | IC50 [2] [µM] |
| --- | --- | --- |
| O=C(CCc1ccc(O)cc1)c1c(O)cc(O)cc1O [Phlor, phloretin] | ~0.72 |  |
| CCn1c(SCC(=O)Nc2nnc(-c3ccc(OC(C)C)cc3)s2)nnc1C(C)C [RG, RG100204] |  | ~0.076 |
